Format in all cases: in vivo
The subject of assay [1] is surinam grass (Brachiaria decumbens). The experiment in a line: Test E pre-/postemergence greenhouse herbicide test. To be noted: Preemergence, scale 0 to 100.
For assay [2], the system named is crabgrass, large (large crabgrass Digitaria sanguinalis). The description is as above. Conditions: Preemergence, scale 0 to 100.
Assay [3] deals with cocklebur (common cocklebur, Xanthium strumarium). The assay is described as above. Conditions: Preemergence, scale 0 to 100.
Assay [4] concerns nutsedge, yellow (yellow nutsedge, Cyperus esculentus). The assay is described as above. To be noted: Preemergence, scale 0 to 100.
For assay [5], the system named is waterhemp_RES1 (ALS & Triazine resistant common waterhemp, Amaranthus rudis). The experiment in a line: Test E postemergence greenhouse herbicide test. To be noted: scale 0 to 100. Here is the method: (§1) At the same time, plants from these crop and weed species and also waterhemp_RES1, (ALS & Triazine resistant common waterhemp, Amaranthus rudis), and waterhemp_RES2, (ALS & HPPD resistant common waterhemp, Amaranthus rudis) were planted in pots containing Redi-Earth® planting medium (Scotts Company, 14111 Scottslawn Road, Marysville, Ohio 43041) comprising spaghnum peat moss, vermiculite, wetting agent and starter nutrients were treated with postemergence applications of test chemicals formulated in the same manner. Plants ranged in height from 2 to 18 cm for postemergence treatments (1- to 4-leaf stage). Treated plants and controls were maintained in a greenhouse for 14 to 21 d, after which time all species were compared to controls and visually evaluated. Plant response ratings, summarized in Table E, are based on a scale of 0 to 100 where 0 is no effect and 100 is complete control. A dash (-) response means no test result.

The subject of assay [6] is waterhemp_RES2 (ALS & HPPD resistant common waterhemp, Amaranthus rudis). The experiment in a line: Test E postemergence greenhouse herbicide test. To be noted: scale 0 to 100. As to the method: as §1

Regarding `COc1cc(=O)n(-c2ccc(C(F)(F)F)cc2)nc1Cc1ccnc(C(F)(F)F)c1` [Compound 16, 5-methoxy-2-[4-(trifluoromethyl)phenyl]-6-[[2-(trifluoromethyl)-4-pyridinyl]methyl]-3(2H)-pyridazinone], the “Plant response rating: Surinam Grass” value in assay [1] (62 g ai/ha) stood at 25; in assay [1] (125 g ai/ha), 40; in assay [1] (250 g ai/ha) it was 98. The “Plant response rating: Crabgrass, Large” value in assay [2] (62 g ai/ha), in assay [2] (125 g ai/ha) and in assay [2] (250 g ai/ha) was 100 throughout. The “Plant response rating: Cocklebur” value in assay [3] (125 g ai/ha) and in assay [3] (250 g ai/ha) was 0 each time. Moreover, the “Plant response rating: Nutsedge, Yellow” value is reported as 20 in assay [4] (62 g ai/ha), 20 in assay [4] (125 g ai/ha) and 40 in assay [4] (250 g ai/ha). In addition, the “Plant response rating: Waterhemp_RES1” value came out at 95 in assay [5] (62 g ai/ha), 100 in assay [5] (125 g ai/ha) and 100 in assay [5] (250 g ai/ha). Further, the figures for the “Plant response rating: Waterhemp_RES2” value in assay [6] (62 g ai/ha), in assay [6] (125 g ai/ha) and in assay [6] (250 g ai/ha) were 90, 95 and 100, respectively.

For the origin of these results see US10202361B2, “Pyridazinones as herbicides” (E I DU PONT DE NEMOURS AND COMPANY, priority 2014, dated 2019).
